Experimental data: patent US20090274773A1, “ANTIPROLIFERATIVE COMBINATION COMPRISING CYC-682 AND A CYTOTOXIC AGENT” (Cyclacel Limited, priority 2005, published 2009)

Legend:
Format in all cases: cell-based, human
COLO205 cancer cell line = assay: CYC682 drug-combination study (MTT, Chou and Talalay combination index, isobolograms)
Procedure: (§1) For simultaneous drug exposure, cells were seeded at 2×10^3 cells/well in 96-well plates and treated 24 hours later with increasing concentrations of CYC682 alone or with various concentrations of another drug corresponding to the IC20, IC40 or IC60 values. After approximately four doubling times (120 hours), the growth inhibitory effect was measured by the MTT assay.
(§2) Cells were seeded at 2×10^3 cells/well in 96-well plates and allowed to grow for 24 hour. Cells were then exposed to various concentrations of the first drug for 1 hour/24 hours/48 hours, the drug was removed, the cells were washed and the second drug was added. After additional drug exposure, the second drug was removed, the cells were washed and incubated in drug-free medium for 72 hours. Growth inhibition was then determined by the MTT assay.
(§3) Effects of drug combinations were evaluated using the Chou and Talalay method which is based on the median-effect principle (Chou T C, Talalay P. Quantitative analysis of dose-effect relationships: the combined effects of multiple drugs or enzyme inhibitors. Adv Enzyme Regul. 1984; 22:27-55). […] On the basis of the slope of the curve for each drug in a combination, it can be determined whether the drugs have mutually nonexclusive effects (e.g., independent or interactive modes of action).
(§4) The combination index (CI) is then determined by the equation:
(§5) CI=[(C)1/(Cx)1]+[(C)2/(Cx)2]+[α(C)1(C)2/(Cx)1(Cx)2],
(§6) where (Cx)1 is the concentration of drug 1 required to produce an x percent effect of that drug alone, and (C)1, the concentration of drug 1 required to produce the same x percent effect in combination with (C)2. If the mode of action of the drugs is mutually exclusive or nonexclusive, then α is 0 or 1, respectively. CI values will be calculated with this equation using different values of fa (i.e., for different degrees of cell growth inhibition). CI values of <1 indicate synergy, the value of 1 indicates additive effects, and values >1 indicate antagonism. Data were analyzed on an IBM-PC computer using concentration-effect analysis for microcomputer software (Biosoft, Cambridge, UK). For statistical analysis and graphs we will use Instat and Prism software (GraphPad, San Diego, USA). The dose-effect relationships for the drugs tested, alone or in paired combinations, were subjected to median-effect plot analysis to determine their relative potency (IC50), shape (m), and conformity (r) in each selected cell line. As stated above, the IC50 and m values were respectively used to calculate synergism and antagonism on the basis of the CI equation. Results were expressed as the mean±standard deviation of at least 3 experiments performed in duplicate. In each experiment, cells were exposed to the paired combinations for 48 hours as described above. Means and standard deviations were compared using Student's t-test (two-sided p value).
(§7) The effect of sequential and simultaneous exposure (FIG. 2) to CYC682 with oxaliplatin, doxorubicin, docetaxel and gemcitabine was studied in two sensitive colon cancer cell lines—COLO205 and HCT116 using combination indices that represent an affected fraction for the concentration of drugs corresponding to IC50 as previously described by Chou and Talalay.

HCT116 cancer cell line = assay: as above
Procedure: as §1, §2, §3, §4, §5, §6, §7

[1] = test system: NSCLC cell line RERF-LC-MA; assay: CNDAC combinations (alamar blue, Calcusyn Combination Index); details: named agent in combination with CNDAC, simultaneous treatment 72 h
Procedure: Experiments in the NSCLC cell lines H1299 or RERF-LC-MA were performed in 96-well plates, with cells seeded at a density of 3,000/well, in DMEM containing 10% (v/v) FCS. Stock solutions of all drugs were made up in dimethylsulfoxide (DMSO), with the exception of gemcitabine, which was dissolved in 0.9% (w/v) sterile saline solution.
For experimental assessment of potential synergistic interactions, the concomitant treatment regime involved simultaneous treatment of cells with CNDAC and the other agent under investigation for 72 h, alongside suitable controls of cells treated with the individual compounds alone for 72 hr. In the sequential treatment regimes, one drug was added to the cells 2 h after plating, and left for 24 h. Media was then aspirated, replaced with fresh media containing the second drug and incubated for 72 h. The two individual treatment controls for the sequential treatment regime involved substituting one of the drug treatments with drug-free media. After drug treatment, the number of cells in each well was estimated by incubating for 1 h in media containing 10% alamar blue (Roche, Lewes, East Sussex, U.K.) and measuring the absorbance at 488-595 nm. Drug interactions were analysed using the Calcusyn software package (BioSoft, Cambridge, U.K.) described below. A Combination Index (C.I.) of 1 indicates an additive drug interaction, whereas a C.I. greater than 1 is antagonistic and a score lower than 1 is synergistic.

SMILES	Interaction with CYC682 (isobologram) (COLO205 cancer cell line; COLO205, named agent given prior to CYC682)	Interaction with CYC682 (isobologram) (HCT116 cancer cell line; HCT116, named agent given prior to CYC682)	Combination Index at ED50, Concomitant [1]	Combination Index at ED75, Concomitant [1]	Combination Index at ED90, Concomitant [1]	Interaction with CYC682 (isobologram) (COLO205 cancer cell line; COLO205 (FIG. 5), sequential exposure, at high concentrations)	Interaction with CYC682 (isobologram) (HCT116 cancer cell line; HCT116 (FIG. 5), sequential exposure, at high concentrations)
CC(=O)O[C@@]12CO[C@@H]1C[C@H](O)[C@@]1(C)C(=O)[C@H](O)C3=C(C)[C@@H](OC(=O)[C@H](O)[C@@H](NC(=O)OC(C)(C)C)c4ccccc4)C[C@@](O)([C@@H](OC(=O)c4ccccc4)[C@H]21)C3(C)C [Docetaxel]	synergistic effect	synergistic effect	0.9	0.97	1.1	–	–
COc1cccc2c1C(=O)c1c(O)c3c(c(O)c1C2=O)C[C@@](O)(C(=O)CO)C[C@@H]3O[C@H]1C[C@H](N)[C@H](O)[C@H](C)O1 [Doxorubicin]	–	–	–	–	–	synergistic	synergistic
